From the kinase profiling compilation of Christmann-Franck et al. (2016)
pKd: −log10 of the molar value.

What was measured:
Test in all cases: KINOMEscan competition binding
HIPK1 (human) = HIPK1 (human) (UniProt Q86Z02)
NEK9 (human) = NEK9 (human) (UniProt Q8TD19)
ULK2 (human) = ULK2 (human) (UniProt Q8IYT8)
[1] = system: FLT3 (human), P36888 [D835H]
FER (human) = FER (human) (UniProt P16591)
ROCK2 (human) = ROCK2 (human) (UniProt O75116)
CDC42BPB (human) = CDC42BPB (human) (UniProt Q9Y5S2)
RPS6KA2 KD2 (human) = RPS6KA2 KD2 (human) (UniProt Q15349)
[2] = system: PIK3CA (human), P42336 [H1047Y]
GAK (human) = GAK (human) (UniProt O14976)
NIM1 (human) = NIM1 (human) (UniProt Q8IY84)
STK4 (human) = STK4 (human) (UniProt Q13043)
CSNK1G2 (human) = CSNK1G2 (human) (UniProt P78368)
HIPK3 (human) = HIPK3 (human) (UniProt Q9H422)
IKBKE (human) = IKBKE (human) (UniProt Q14164)
STK17A (human) = STK17A (human) (UniProt Q9UEE5)
ERBB2 (human) = ERBB2 (human) (UniProt P04626)
IGF1R (human) = IGF1R (human) (UniProt P08069)
PAK4 (human) = PAK4 (human) (UniProt O96013)
RPS6KA2 KD1 (human) = RPS6KA2 KD1 (human) (UniProt Q15349)
STK36 (human) = STK36 (human) (UniProt Q9NRP7)
CDK8 (human) = CDK8 (human) (UniProt P49336)
KIT (human) = KIT (human) (UniProt P10721)
MAP2K6 (human) = MAP2K6 (human) (UniProt P52564)
PIK3CA (human) = PIK3CA (human) (UniProt P42336)
CSNK1G1 (human) = CSNK1G1 (human) (UniProt Q9HCP0)
CDK14 (human) = CDK14 (human) (UniProt O94921)
ABL2 (human) = ABL2 (human) (UniProt P42684)
CAMK4 (human) = CAMK4 (human) (UniProt Q16566)
RPS6KA3 KD1 (human) = RPS6KA3 KD1 (human) (UniProt P51812)
[3] = target: JAK2 JH1 catalytic (human) (UniProt O60674)
PAK6 (human) = PAK6 (human) (UniProt Q9NQU5)
INSRR (human) = INSRR (human) (UniProt P14616)
CSNK1E (human) = CSNK1E (human) (UniProt P49674)
STK38 (human) = STK38 (human) (UniProt Q15208)
SLK (human) = SLK (human) (UniProt Q9H2G2)
MAP3K12 (human) = MAP3K12 (human) (UniProt Q12852)
CAMKK1 (human) = CAMKK1 (human) (UniProt Q8N5S9)
MAP2K4 (human) = MAP2K4 (human) (UniProt P45985)
STK16 (human) = STK16 (human) (UniProt O75716)
PRKCH (human) = PRKCH (human) (UniProt P24723)

Chain of KIT (human) (P10721 whole entry, looked up): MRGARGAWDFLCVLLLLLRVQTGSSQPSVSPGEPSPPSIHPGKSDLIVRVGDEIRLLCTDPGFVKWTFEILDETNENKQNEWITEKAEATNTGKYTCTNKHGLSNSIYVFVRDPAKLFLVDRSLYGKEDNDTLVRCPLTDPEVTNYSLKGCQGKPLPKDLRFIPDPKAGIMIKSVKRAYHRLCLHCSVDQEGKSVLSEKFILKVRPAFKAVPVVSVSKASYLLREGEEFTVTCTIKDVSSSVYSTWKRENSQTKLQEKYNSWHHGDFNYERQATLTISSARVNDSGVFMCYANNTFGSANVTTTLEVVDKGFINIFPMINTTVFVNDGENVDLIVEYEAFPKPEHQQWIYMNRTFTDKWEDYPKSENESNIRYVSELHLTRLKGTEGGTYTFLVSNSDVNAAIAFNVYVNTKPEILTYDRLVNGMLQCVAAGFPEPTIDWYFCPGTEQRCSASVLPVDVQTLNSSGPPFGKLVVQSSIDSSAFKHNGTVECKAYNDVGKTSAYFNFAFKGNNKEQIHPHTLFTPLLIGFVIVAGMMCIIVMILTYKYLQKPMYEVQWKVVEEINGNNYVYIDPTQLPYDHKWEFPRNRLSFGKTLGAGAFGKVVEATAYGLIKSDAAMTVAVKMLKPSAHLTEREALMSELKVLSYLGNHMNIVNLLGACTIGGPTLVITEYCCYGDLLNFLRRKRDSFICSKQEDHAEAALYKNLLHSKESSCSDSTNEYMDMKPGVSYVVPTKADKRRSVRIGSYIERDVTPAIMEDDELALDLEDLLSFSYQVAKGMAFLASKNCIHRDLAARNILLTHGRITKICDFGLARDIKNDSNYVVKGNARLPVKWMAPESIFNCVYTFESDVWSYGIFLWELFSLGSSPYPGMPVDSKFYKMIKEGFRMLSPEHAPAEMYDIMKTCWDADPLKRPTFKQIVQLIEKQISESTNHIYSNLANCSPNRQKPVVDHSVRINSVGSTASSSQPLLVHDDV
Chain of HIPK1 (human) (Q86Z02 whole entry, looked up): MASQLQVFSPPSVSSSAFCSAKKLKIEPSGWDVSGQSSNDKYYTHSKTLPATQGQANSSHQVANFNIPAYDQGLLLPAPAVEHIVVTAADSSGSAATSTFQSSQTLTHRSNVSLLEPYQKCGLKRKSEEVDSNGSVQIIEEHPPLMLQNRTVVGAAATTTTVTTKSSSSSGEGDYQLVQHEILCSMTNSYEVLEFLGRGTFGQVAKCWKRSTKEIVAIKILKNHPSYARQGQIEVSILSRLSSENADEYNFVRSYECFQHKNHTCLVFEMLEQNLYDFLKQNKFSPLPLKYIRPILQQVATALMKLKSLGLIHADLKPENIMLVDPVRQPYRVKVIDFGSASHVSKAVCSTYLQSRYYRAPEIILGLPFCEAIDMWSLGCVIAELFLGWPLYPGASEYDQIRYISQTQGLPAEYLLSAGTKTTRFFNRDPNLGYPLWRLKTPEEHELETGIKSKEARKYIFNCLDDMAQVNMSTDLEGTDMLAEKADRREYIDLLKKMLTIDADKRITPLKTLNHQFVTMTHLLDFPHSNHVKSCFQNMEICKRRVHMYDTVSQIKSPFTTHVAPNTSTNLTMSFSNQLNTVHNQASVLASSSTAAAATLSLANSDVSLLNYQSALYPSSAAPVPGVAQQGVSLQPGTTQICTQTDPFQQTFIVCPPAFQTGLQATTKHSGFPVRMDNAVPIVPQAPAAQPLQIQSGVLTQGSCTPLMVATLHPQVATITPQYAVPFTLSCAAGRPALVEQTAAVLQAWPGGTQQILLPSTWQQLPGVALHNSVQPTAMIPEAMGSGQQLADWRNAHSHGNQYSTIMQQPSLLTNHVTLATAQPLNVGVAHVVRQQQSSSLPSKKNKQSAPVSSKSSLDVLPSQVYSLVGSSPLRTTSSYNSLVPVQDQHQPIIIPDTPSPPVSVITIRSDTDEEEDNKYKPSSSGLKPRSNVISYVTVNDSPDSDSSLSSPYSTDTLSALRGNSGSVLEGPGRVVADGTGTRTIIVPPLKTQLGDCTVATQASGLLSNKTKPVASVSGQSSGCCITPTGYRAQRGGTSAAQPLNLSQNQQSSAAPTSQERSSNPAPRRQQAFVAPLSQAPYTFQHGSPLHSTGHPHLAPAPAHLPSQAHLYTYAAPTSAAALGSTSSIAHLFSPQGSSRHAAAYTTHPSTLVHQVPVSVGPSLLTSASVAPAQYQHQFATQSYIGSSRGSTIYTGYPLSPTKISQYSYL
Chain of PIK3CA (human), P42336 [H1047Y] (P42336 whole entry H1047Y, looked up): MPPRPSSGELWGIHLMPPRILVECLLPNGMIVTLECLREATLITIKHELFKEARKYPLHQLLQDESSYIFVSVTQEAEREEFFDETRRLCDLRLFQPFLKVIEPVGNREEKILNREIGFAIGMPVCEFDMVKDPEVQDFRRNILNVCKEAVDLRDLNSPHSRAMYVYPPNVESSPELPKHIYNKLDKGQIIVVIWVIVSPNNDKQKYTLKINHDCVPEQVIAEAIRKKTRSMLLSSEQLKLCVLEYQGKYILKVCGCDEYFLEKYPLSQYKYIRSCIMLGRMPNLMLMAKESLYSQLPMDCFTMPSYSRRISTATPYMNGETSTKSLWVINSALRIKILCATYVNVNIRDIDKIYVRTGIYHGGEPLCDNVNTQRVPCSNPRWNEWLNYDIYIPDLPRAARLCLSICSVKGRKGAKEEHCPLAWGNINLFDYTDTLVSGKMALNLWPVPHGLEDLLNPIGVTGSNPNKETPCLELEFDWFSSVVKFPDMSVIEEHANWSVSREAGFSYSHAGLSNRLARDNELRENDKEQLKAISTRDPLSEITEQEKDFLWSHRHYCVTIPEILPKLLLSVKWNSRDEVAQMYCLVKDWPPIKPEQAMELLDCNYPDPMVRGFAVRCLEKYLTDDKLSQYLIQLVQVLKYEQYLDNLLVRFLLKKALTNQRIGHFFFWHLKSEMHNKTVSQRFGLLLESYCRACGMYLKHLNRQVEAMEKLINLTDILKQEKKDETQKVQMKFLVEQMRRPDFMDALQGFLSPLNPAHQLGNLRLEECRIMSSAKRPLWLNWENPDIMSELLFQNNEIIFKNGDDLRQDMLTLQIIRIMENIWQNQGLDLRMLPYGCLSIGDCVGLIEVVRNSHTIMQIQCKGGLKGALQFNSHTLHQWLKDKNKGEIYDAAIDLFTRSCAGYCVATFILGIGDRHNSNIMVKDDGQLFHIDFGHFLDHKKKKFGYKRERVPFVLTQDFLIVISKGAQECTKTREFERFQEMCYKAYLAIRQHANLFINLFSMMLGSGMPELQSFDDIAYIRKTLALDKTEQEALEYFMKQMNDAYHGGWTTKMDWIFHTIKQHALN
Chain of ABL2 (human) (P42684 whole entry, looked up): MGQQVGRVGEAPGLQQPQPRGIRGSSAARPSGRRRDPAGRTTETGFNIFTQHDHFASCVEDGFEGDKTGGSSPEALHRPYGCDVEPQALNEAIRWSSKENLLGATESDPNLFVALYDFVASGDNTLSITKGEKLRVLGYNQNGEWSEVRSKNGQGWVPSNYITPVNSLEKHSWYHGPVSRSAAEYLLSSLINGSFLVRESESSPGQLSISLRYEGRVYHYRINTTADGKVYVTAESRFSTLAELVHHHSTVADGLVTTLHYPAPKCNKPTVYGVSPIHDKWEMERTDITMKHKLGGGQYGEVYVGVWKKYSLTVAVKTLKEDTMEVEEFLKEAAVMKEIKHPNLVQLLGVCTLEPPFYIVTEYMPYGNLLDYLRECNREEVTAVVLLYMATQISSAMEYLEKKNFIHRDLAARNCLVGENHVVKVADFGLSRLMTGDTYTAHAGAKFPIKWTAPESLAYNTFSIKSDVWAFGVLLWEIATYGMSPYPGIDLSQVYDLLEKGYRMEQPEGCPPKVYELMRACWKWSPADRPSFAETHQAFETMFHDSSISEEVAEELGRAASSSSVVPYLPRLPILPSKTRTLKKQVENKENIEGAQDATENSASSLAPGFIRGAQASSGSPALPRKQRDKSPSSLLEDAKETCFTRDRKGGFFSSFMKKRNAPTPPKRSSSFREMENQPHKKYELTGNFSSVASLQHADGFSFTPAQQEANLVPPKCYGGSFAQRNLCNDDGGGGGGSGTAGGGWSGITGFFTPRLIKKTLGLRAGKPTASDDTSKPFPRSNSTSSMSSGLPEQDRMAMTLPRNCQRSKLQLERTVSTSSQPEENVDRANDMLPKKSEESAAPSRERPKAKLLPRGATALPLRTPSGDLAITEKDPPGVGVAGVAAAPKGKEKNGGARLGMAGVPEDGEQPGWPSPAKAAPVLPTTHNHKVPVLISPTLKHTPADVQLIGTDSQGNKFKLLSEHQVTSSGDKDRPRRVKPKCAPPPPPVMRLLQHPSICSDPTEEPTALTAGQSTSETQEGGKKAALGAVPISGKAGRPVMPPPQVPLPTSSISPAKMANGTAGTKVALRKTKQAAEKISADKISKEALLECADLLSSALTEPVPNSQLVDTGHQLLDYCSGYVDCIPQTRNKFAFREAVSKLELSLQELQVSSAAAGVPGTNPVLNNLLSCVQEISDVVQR
Chain of STK17A (human) (Q9UEE5 whole entry, looked up): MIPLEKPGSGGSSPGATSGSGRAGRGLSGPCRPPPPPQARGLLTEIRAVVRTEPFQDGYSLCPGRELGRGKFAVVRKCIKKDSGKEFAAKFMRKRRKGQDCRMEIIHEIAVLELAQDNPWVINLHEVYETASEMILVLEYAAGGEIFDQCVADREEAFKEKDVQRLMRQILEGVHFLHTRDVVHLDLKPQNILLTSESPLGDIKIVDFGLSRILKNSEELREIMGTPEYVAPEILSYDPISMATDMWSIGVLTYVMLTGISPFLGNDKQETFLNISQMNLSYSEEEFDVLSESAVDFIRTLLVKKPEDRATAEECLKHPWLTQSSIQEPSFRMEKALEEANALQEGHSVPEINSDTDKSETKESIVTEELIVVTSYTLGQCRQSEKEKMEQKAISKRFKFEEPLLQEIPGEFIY
Chain of PIK3CA (human) (P42336 whole entry, looked up): as the sequence (P42336 whole entry H1047Y, looked up) above, with Y1047H counted along it

SMILES: CN(C)C/C=C/C(=O)Nc1cccc(C(=O)Nc2ccc(Nc3nccc(/C(C#N)=C4\Nc5ccccc5S4)n3)cc2)c1
- kinase still bound, per cent of control (HIPK1 (human); compound 1.0 µM): 100%
- kinase still bound, per cent of control (NEK9 (human); compound 1.0 µM): 100%
- kinase still bound, per cent of control (ULK2 (human); compound 1.0 µM): 73%
- kinase still bound, per cent of control ([1]; compound 1.0 µM): 62%
- kinase still bound, per cent of control (FER (human); compound 1.0 µM): 82%
- kinase still bound, per cent of control (ROCK2 (human); compound 1.0 µM): 100%
- kinase still bound, per cent of control (CDC42BPB (human); compound 1.0 µM): 100%
- kinase still bound, per cent of control (RPS6KA2 KD2 (human); compound 1.0 µM): 100%
- kinase still bound, per cent of control ([2]; compound 1.0 µM): 100%
- kinase still bound, per cent of control (GAK (human); compound 1.0 µM): 79%
- kinase still bound, per cent of control (NIM1 (human); compound 1.0 µM): 86%
- kinase still bound, per cent of control (STK4 (human); compound 1.0 µM): 100%
- kinase still bound, per cent of control (CSNK1G2 (human); compound 1.0 µM): 22%
- kinase still bound, per cent of control (HIPK3 (human); compound 1.0 µM): 85%
- kinase still bound, per cent of control (IKBKE (human); compound 1.0 µM): 100%
- kinase still bound, per cent of control (STK17A (human); compound 1.0 µM): 100%
- kinase still bound, per cent of control (ERBB2 (human); compound 1.0 µM): 100%
- kinase still bound, per cent of control (IGF1R (human); compound 1.0 µM): 100%
- kinase still bound, per cent of control (PAK4 (human); compound 1.0 µM): 100%
- kinase still bound, per cent of control (RPS6KA2 KD1 (human); compound 1.0 µM): 98%
- kinase still bound, per cent of control (STK36 (human); compound 1.0 µM): 95%
- kinase still bound, per cent of control (CDK8 (human); compound 1.0 µM): 100%
- kinase still bound, per cent of control (KIT (human); compound 1.0 µM): 12%
- kinase still bound, per cent of control (MAP2K6 (human); compound 1.0 µM): 100%
- kinase still bound, per cent of control (PIK3CA (human); compound 1.0 µM): 64%
- kinase still bound, per cent of control (CSNK1G1 (human); compound 1.0 µM): 92%
- kinase still bound, per cent of control (CDK14 (human); compound 1.0 µM): 100%
- kinase still bound, per cent of control (ABL2 (human); compound 1.0 µM): 100%
- kinase still bound, per cent of control (CAMK4 (human); compound 1.0 µM): 100%
- kinase still bound, per cent of control (RPS6KA3 KD1 (human); compound 1.0 µM): 87%
- kinase still bound, per cent of control ([3]; compound 1.0 µM): 100%
- kinase still bound, per cent of control (PAK6 (human); compound 1.0 µM): 100%
- kinase still bound, per cent of control (INSRR (human); compound 1.0 µM): 87%
- kinase still bound, per cent of control (CSNK1E (human); compound 1.0 µM): 41%
- kinase still bound, per cent of control (STK38 (human); compound 1.0 µM): 100%
- kinase still bound, per cent of control (SLK (human); compound 1.0 µM): 8.6%
- kinase still bound, per cent of control (MAP3K12 (human); compound 1.0 µM): 100%
- kinase still bound, per cent of control (CAMKK1 (human); compound 1.0 µM): 100%
- kinase still bound, per cent of control (MAP2K4 (human); compound 1.0 µM): 100%
- kinase still bound, per cent of control (STK16 (human); compound 1.0 µM): 100%
- kinase still bound, per cent of control (PRKCH (human); compound 1.0 µM): 100%

SMILES: Cc1ccc(NC(=O)c2ccc(NC(=O)/C=C/CN(C)C)cc2)cc1Nc1nccc(-c2cccnc2)n1
- kinase still bound, per cent of control (HIPK1 (human); compound 10.0 µM): 44%
- kinase still bound, per cent of control (NEK9 (human); compound 10.0 µM): 100%
- kinase still bound, per cent of control (ULK2 (human); compound 10.0 µM): 30%
- kinase still bound, per cent of control ([1]; compound 10.0 µM): 66%
- kinase still bound, per cent of control (FER (human); compound 10.0 µM): 90%
- kinase still bound, per cent of control (ROCK2 (human); compound 10.0 µM): 61%
- kinase still bound, per cent of control (CDC42BPB (human); compound 10.0 µM): 78%
- kinase still bound, per cent of control (RPS6KA2 KD2 (human); compound 10.0 µM): 86%
- kinase still bound, per cent of control ([2]; compound 10.0 µM): 72%
- kinase still bound, per cent of control (GAK (human); compound 10.0 µM): 8.6%
- kinase still bound, per cent of control (NIM1 (human); compound 10.0 µM): 92%
- kinase still bound, per cent of control (STK4 (human); compound 10.0 µM): 100%
- kinase still bound, per cent of control (CSNK1G2 (human); compound 10.0 µM): 83%
- kinase still bound, per cent of control (HIPK3 (human); compound 10.0 µM): 35%
- kinase still bound, per cent of control (IKBKE (human); compound 10.0 µM): 100%
- kinase still bound, per cent of control (STK17A (human); compound 10.0 µM): 1.6%
- kinase still bound, per cent of control (ERBB2 (human); compound 10.0 µM): 50%
- kinase still bound, per cent of control (IGF1R (human); compound 10.0 µM): 100%
- kinase still bound, per cent of control (PAK4 (human); compound 10.0 µM): 84%
- kinase still bound, per cent of control (RPS6KA2 KD1 (human); compound 10.0 µM): 76%
- kinase still bound, per cent of control (STK36 (human); compound 10.0 µM): 100%
- kinase still bound, per cent of control (CDK8 (human); compound 10.0 µM): 93%
- pKd (KIT (human)): 7.52
- kinase still bound, per cent of control (KIT (human); compound 10.0 µM): 0%
- kinase still bound, per cent of control (MAP2K6 (human); compound 10.0 µM): 100%
- kinase still bound, per cent of control (PIK3CA (human); compound 10.0 µM): 100%
- kinase still bound, per cent of control (CSNK1G1 (human); compound 10.0 µM): 85%
- kinase still bound, per cent of control (CDK14 (human); compound 10.0 µM): 100%
- kinase still bound, per cent of control (ABL2 (human); compound 10.0 µM): 44%
- kinase still bound, per cent of control (CAMK4 (human); compound 10.0 µM): 100%
- kinase still bound, per cent of control (RPS6KA3 KD1 (human); compound 10.0 µM): 52%
- kinase still bound, per cent of control ([3]; compound 10.0 µM): 39%
- kinase still bound, per cent of control (PAK6 (human); compound 10.0 µM): 45%
- kinase still bound, per cent of control (INSRR (human); compound 10.0 µM): 100%
- kinase still bound, per cent of control (CSNK1E (human); compound 10.0 µM): 72%
- kinase still bound, per cent of control (STK38 (human); compound 10.0 µM): 80%
- kinase still bound, per cent of control (SLK (human); compound 10.0 µM): 100%
- kinase still bound, per cent of control (MAP3K12 (human); compound 10.0 µM): 94%
- kinase still bound, per cent of control (CAMKK1 (human); compound 10.0 µM): 99%
- kinase still bound, per cent of control (MAP2K4 (human); compound 10.0 µM): 15%
- kinase still bound, per cent of control (STK16 (human); compound 10.0 µM): 34%
- kinase still bound, per cent of control (PRKCH (human); compound 10.0 µM): 87%
